Here are results for 18 compounds from patent US20050101595A1, “N-containing cycloalkyl-substituted amino-thiazole derivatives and pharmaceutical compositions for inhibiting cell proliferation and methods for their use” (PFIZER INC., priority 2003, published 2005).

In one assay the target is CDK2/Cyclin A (Homo sapiens, UniProt P24941). Put plainly: Inhibition of CDK2/Cyclin A Retinoblastoma Kinase Activity. The class given is biochemical. The conditions noted are these: apparent Ki, CDK2/proteolyzed cyclin A, Rb fragment substrate, 25 μM ATP. Put shortly:
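CDK2 (10 or 19 nM), insect-cell expressed, gel-filtration purified with truncated cyclin A; Rb fragment substrate; 25 μM ATP; 10 mM HEPES pH 7.4, 10 mM MgCl2; 30° C, 60 or 75 min; EDTA stop; phosphocellulose/nitrocellulose capture, phosphorimager. % inhibition vs DMSO control, no-enzyme background subtracted.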

In assay [1] the target is human CDK4 and genetically truncated (1-264) cyclin D3 (Homo sapiens, UniProt P11802). The experiment in a line: Inhibition of CDK4/Cyclin D Retinoblastoma Kinase Activity. The class given is biochemical. The conditions noted are these: apparent Ki, CDK4/truncated cyclin D3, Rb fragment substrate, 25 μM ATP. In short, it runs like this:
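The enzyme complex (5 nM), expressed in co-infected insect cells, was incubated with recombinant Rb fragment, 25 μM radiolabelled ATP and 2% DMSO at 30 °C. Reactions were stopped with EDTA after 20 minutes, or 60 minutes for tight-binding inhibitors. Apparent Ki values came from competitive inhibition fits.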

For a further assay, the system named is HCT-116 cell line. The experiment in a line: Inhibition of cell growth, tetrazolium salt (MTT) assay. The conditions noted are these: Homo sapiens, HCT-116, 120 h, MTT, three to five days, read-out: HCT-116 IC50. It counts as cell-based. Put shortly:
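Growth inhibition by MTT reduction at 540 nm (0.2 mg/mL, 4 h at 37° C, formazan dissolved in DMSO), normalized to cells given only 0.5% v/v DMSO. HCT-116 cultures in McCoy's 5A were dosed 4 h post-plating and kept three to five days at 37° C, 5% CO2.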

Molecules are shown by their SMILES. Counter-ions that a name gives are not always drawn. Like-named read-outs stand apart in the source and are kept apart here.

Sequence of human CDK4 and genetically truncated (1-264) cyclin D3 (P11802 whole entry, the tested form may be a part): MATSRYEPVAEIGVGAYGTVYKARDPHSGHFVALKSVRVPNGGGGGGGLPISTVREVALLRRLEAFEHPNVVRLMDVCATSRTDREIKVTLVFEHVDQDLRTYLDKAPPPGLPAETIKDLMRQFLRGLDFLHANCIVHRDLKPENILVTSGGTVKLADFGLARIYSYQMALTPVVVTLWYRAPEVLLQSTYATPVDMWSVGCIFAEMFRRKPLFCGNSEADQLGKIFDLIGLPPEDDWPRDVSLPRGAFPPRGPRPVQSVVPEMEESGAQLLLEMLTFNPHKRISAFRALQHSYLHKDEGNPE
Sequence of human CDK4 and genetically truncated (1-264) cyclin D3 (P30281 1-264 partner): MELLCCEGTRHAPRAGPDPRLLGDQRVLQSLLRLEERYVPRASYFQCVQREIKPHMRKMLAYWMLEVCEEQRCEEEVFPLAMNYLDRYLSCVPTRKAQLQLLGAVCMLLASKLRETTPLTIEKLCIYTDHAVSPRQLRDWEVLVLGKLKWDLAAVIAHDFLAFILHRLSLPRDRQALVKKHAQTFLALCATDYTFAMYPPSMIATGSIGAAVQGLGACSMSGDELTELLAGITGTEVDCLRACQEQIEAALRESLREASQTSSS

Consider `Nc1nc(NC2CCN(S(=O)(=O)c3ccc(SCCc4ccccn4)nc3)CC2)sc1C(=O)c1c(F)cccc1F` [Example L3, 1-(4-Amino-2-{1-[6-(2-pyridin-2-yl-ethylsulfanyl)-pyridine-3-sulfonyl]-piperidin-4-ylamino}-thiazol-5-yl)-1-(2,6-difluoro-phenyl)-methanone Hydrochloride.], for which the Ki on CDK2/Cyclin A amounted to 0.68 nM; in assay [1], 1.2 nM. Further, the IC50 in the assay with HCT-116 cell line (first HCT-116 column (c4)) was 350 nM; in the assay on HCT-116 cell line (second HCT-116 column (c5)), > 500 nM.

In the case of `Nc1nc(NC2CCN(S(=O)(=O)c3ccc(S)nc3)CC2)sc1C(=O)c1c(F)cccc1F` [Example L4, 1-{4-Amino-2-[1-(6-mercapto-pyridine-3-sulfonyl)-piperidin-4-ylamino]-thiazol-5-yl}-1-(2,6-difluoro-phenyl)-methanone Hydrochloride.], the Ki on CDK2/Cyclin A amounted to 0.3 nM; in assay [1], 1.8 nM. For the same compound, the IC50 in the assay with HCT-116 cell line (first HCT-116 column (c4)) and in the assay on HCT-116 cell line (second HCT-116 column (c5)) was > 500 nM each time.

Regarding `CN(C)CCCSc1ccc(S(=O)(=O)N2CCC(Nc3nc(N)c(C(=O)c4c(F)cccc4F)s3)CC2)cn1` [Example L5, 1-(4-Amino-2-{1-[6-(3-dimethylamino-propylsulfanyl)-pyridine-3-sulfonyl]-piperidin-4-ylamino}-thiazol-5-yl)-1-(2,6-difluoro-phenyl)-methanone Dihydrochloride.], the figures for the Ki (on CDK2/Cyclin A; in assay [1]) were 1.5 nM and 0.67 nM, respectively. Further, the IC50 was 70 nM in the assay on HCT-116 cell line (first HCT-116 column (c4)) and > 500 nM in the assay with HCT-116 cell line (second HCT-116 column (c5)).

Take `CN1CCCC1CCSc1ccc(S(=O)(=O)N2CCC(Nc3nc(N)c(C(=O)c4c(F)cccc4F)s3)CC2)cn1` (stereo not drawn) [Example L6, 1-[4-Amino-2-(1-{6-[2-(1-methyl-pyrrolidin-2-yl)-ethylsulfanyl]-pyridine-3-sulfonyl}-piperidin-4-ylamino)-thiazol-5-yl]-1-(2,6-difluoro-phenyl)-methanone Dihydrochloride.]: the Ki on CDK2/Cyclin A was 1.5 nM; in assay [1] it was 0.95 nM. Also, the IC50 worked out at 75 nM in the assay on HCT-116 cell line (first HCT-116 column (c4)) and 300 nM in the assay with HCT-116 cell line (second HCT-116 column (c5)).

Consider `Nc1nc(NC2CCN(S(=O)(=O)c3ccc(SCCN4CCOCC4)nc3)CC2)sc1C(=O)c1c(F)cccc1F` [Example L7, 1-(4-Amino-2-{1-[6-(2-morpholin-4-yl-ethylsulfanyl)-pyridine-3-sulfonyl]-piperidin-4-ylamino}-thiazol-5-yl)-1-(2,6-difluoro-phenyl)-methanone Dihydrochloride.], for which the values for the Ki (on CDK2/Cyclin A; in assay [1]) were 1.5 nM and 2.2 nM, respectively. Further, the values for the IC50 in the assay on HCT-116 cell line (first HCT-116 column (c4)) and in the assay on HCT-116 cell line (second HCT-116 column (c5)) were 95 nM and 300 nM, respectively.

As for `Nc1nc(NC2CCN(Cc3ccccn3)CC2)sc1C(=O)c1c(F)cccc1F` [Example M1, 1-[4-Amino-2-(1-pyridin-2-ylmethyl-piperidin-4-ylamino)-thiazol-5-yl]-1-(2,6-difluoro-phenyl)-methanone], the Ki at CDK2/Cyclin A is > 500 nM; in assay [1], 240 nM. Besides, the IC50 is 2800 nM in the assay with HCT-116 cell line (first HCT-116 column (c4)) and 5000 nM in the assay with HCT-116 cell line (second HCT-116 column (c5)).

On to `Nc1nc(NC2CCN(Cc3ccncc3)CC2)sc1C(=O)c1c(F)cccc1F` [Example M2, 1-[4-Amino-2-(1-pyridin-4-ylmethyl-piperidin-4-ylamino)-thiazol-5-yl]-1-(2,6-difluoro-phenyl)-methanone.], for which the Ki was found to be 433 nM at CDK2/Cyclin A and 33.5 nM in assay [1]. Also, the IC50 stood at 2100 nM with HCT-116 cell line (first HCT-116 column (c4)) and 5000 nM in the assay on HCT-116 cell line (second HCT-116 column (c5)).

`Nc1nc(NC2CCN(S(=O)(=O)c3ccc(CCNc4ccccc4O)nc3)CC2)sc1C(=O)c1c(F)cccc1F` [Example N1, [4-Amino-2-(1-{6-[2-(2-hydroxy-phenylamino)-ethyl]-pyridine-3-sulfonyl}-piperidin-4-ylamino)-thiazol-5-yl]-(2,6-difluoro-phenyl)-methanone Trifluoroacetic Acid Salt.]: the Ki at CDK2/Cyclin A turned out to be 0.28 nM; in assay [1], 0.49 nM. The figures for the half-maximal inhibitory concentration (IC50) in the assay on HCT-116 cell line (first HCT-116 column (c4)) and in the assay on HCT-116 cell line (second HCT-116 column (c5)) were 860 nM and 1600 nM, respectively.

For `Nc1nc(NC2CCN(S(=O)(=O)c3ccc(CCN4CCCC4)nc3)CC2)sc1C(=O)c1c(F)cccc1F` [Example N2, (4-Amino-2-{1-[6-(2-pyrrolidin-1-yl-ethyl)-pyridine-3-sulfonyl]-piperidin-4-ylamino}-thiazol-5-yl)-(2,6-difluoro-phenyl)-methanone Hydrochloride Salt.], the Ki on CDK2/Cyclin A is 1.2 nM; in assay [1], 0.49 nM. The IC50 in the assay on HCT-116 cell line (first HCT-116 column (c4)) is 230 nM; in the assay with HCT-116 cell line (second HCT-116 column (c5)), > 500 nM.

Regarding `Nc1nc(NC2CCN(S(=O)(=O)c3ccc(CCN4CCOCC4)nc3)CC2)sc1C(=O)c1c(F)cccc1F` [Example N3, (4-Amino-2-{1-[6-(2-morpholin-4-yl-ethyl)-pyridine-3-sulfonyl]-piperidin-4-ylamino}-thiazol-5-yl)-(2,6-difluoro-phenyl)-methanone Hydrochloride Salt.], the results for the Ki (on CDK2/Cyclin A; in assay [1]) were 1.1 nM and 0.76 nM, respectively. Further, the IC50 was 170 nM with HCT-116 cell line (first HCT-116 column (c4)) and > 500 nM in the assay on HCT-116 cell line (second HCT-116 column (c5)).

Turning to `CN1CCN(CCc2ccc(S(=O)(=O)N3CCC(Nc4nc(N)c(C(=O)c5c(F)cccc5F)s4)CC3)cn2)CC1` [Example N4, [4-Amino-2-(1-{6-[2-(4-methyl-piperazin-1-yl)-ethyl]-pyridine-3-sulfonyl}-piperidin-4-ylamino)-thiazol-5-yl]-(2,6-difluoro-phenyl)-methanone Hydrochloride Salt.], the Ki at CDK2/Cyclin A was 1.7 nM; in assay [1] it was 0.92 nM. Further, the IC50 is 360 nM in the assay on HCT-116 cell line (first HCT-116 column (c4)) and > 500 nM in the assay on HCT-116 cell line (second HCT-116 column (c5)).

Take `Nc1nc(NC2CCN(S(=O)(=O)c3ccc(CCNc4cccc(O)c4)nc3)CC2)sc1C(=O)c1c(F)cccc1F` [Example N6, [4-Amino-2-(1-{6-[2-(3-hydroxy-phenylamino)-ethyl]-pyridine-3-sulfonyl}-piperidin-4-ylamino)-thiazol-5-yl]-(2,6-difluoro-phenyl)-methanone Hydrochloride Salt.]: the figures for the Ki (at CDK2/Cyclin A; in assay [1]) were 0.3 nM and 0.31 nM, respectively. Also, the half-inhibitory concentration (IC50) in the assay on HCT-116 cell line (first HCT-116 column (c4)) was found to be 410 nM; with HCT-116 cell line (second HCT-116 column (c5)) it was 1300 nM.

For `Nc1nc(NC2CCN(S(=O)(=O)c3ccc(CCN4CCC(O)C4)nc3)CC2)sc1C(=O)c1c(F)cccc1F` (stereo not drawn) [Example N7, [4-Amino-2-(1-{6-[2-(3-hydroxy-pyrrolidin-1-yl)-ethyl]-pyridine-3-sulfonyl}-piperidin-4-ylamino)-thiazol-5-yl]-(2,6-difluoro-phenyl)-methanone Hydrochloride Salt.], the Ki is 0.93 nM on CDK2/Cyclin A and 0.35 nM in assay [1]. Moreover, the results for the IC50 with HCT-116 cell line (first HCT-116 column (c4)) and in the assay on HCT-116 cell line (second HCT-116 column (c5)) were 890 nM and 4000 nM, respectively.

On to `C[C@@H]1CN(CCc2ccc(S(=O)(=O)N3CCC(Nc4nc(N)c(C(=O)c5c(F)cccc5F)s4)CC3)cn2)C[C@H](C)N1` [Example N8], for which the Ki on CDK2/Cyclin A was found to be 1.1 nM; in assay [1] it was 0.32 nM. For the same compound, the IC50 in the assay with HCT-116 cell line (first HCT-116 column (c4)) was 1300 nM; in the assay on HCT-116 cell line (second HCT-116 column (c5)), 5000 nM.

In the case of `Nc1nc(NC2CCN(S(=O)(=O)c3ccc(CCN4CCC[C@H]4CO)nc3)CC2)sc1C(=O)c1c(F)cccc1F` [Example N9, [4-Amino-2-(1-{6-[2-(2S-hydroxymethyl-pyrrolidin-1-yl)-ethyl]-pyridine-3-sulfonyl}-piperidin-4-ylamino)-thiazol-5-yl]-(2,6-difluoro-phenyl)-methanone Hydrochloride Salt.], the Ki on CDK2/Cyclin A was determined as 0.8 nM; in assay [1] it was 0.26 nM. Further, the results for the IC50 in the assay with HCT-116 cell line (first HCT-116 column (c4)) and in the assay with HCT-116 cell line (second HCT-116 column (c5)) were 70 nM and 700 nM, respectively.

As for `Nc1nc(NC2CCN(S(=O)(=O)c3ccc(CCN4C[C@@H]5[C@@H](N)[C@@H]5C4)nc3)CC2)sc1C(=O)c1c(F)cccc1F` [Example N10, [4-Amino-2-(1-{6-[2-(1α, 5β, 6γ-amino-3-aza-bicyclo[3.1.0]hex-3-yl)-ethyl]-pyridine-3-sulfonyl}-piperidin-4-ylamino)-thiazol-5-yl]-(2,6-difluoro-phenyl)-methanone Hydrochloride Salt.], the results for the Ki (on CDK2/Cyclin A; in assay [1]) were 1.3 nM and 0.21 nM, respectively. Also, the IC50 in the assay with HCT-116 cell line (first HCT-116 column (c4)) turned out to be 380 nM; with HCT-116 cell line (second HCT-116 column (c5)), 3000 nM.

Turning to `CN(C)CCc1ccc(S(=O)(=O)N2CCC(Nc3nc(N)c(C(=O)c4c(F)cccc4F)s3)CC2)cn1` [Example N11, (4-Amino-2-{1-[6-(2-dimethylamino-ethyl)-pyridine-3-sulfonyl]-piperidin-4-ylamino}-thiazol-5-yl)-(2,6-difluoro-phenyl)-methanone TFA Salt.], the values for the Ki (at CDK2/Cyclin A; in assay [1]) were 1.6 nM and 0.39 nM, respectively. For the same compound, the IC50 was found to be 140 nM in the assay on HCT-116 cell line (first HCT-116 column (c4)) and 1600 nM in the assay on HCT-116 cell line (second HCT-116 column (c5)).

`CN(C)CCc1ncc(S(=O)(=O)N2CCC(Nc3nc(N)c(C(=O)c4c(F)cccc4F)s3)CC2)cn1` [Example N12, (4-Amino-2-{1-[2-(2-dimethylamino-ethyl)-pyrimidine-5-sulfonyl]-piperidine-4-ylamino}-thiazol-5-yl)-(2,6-difluoro-phenyl)-methanone Hydrochloride Salt.]: the results for the Ki (at CDK2/Cyclin A; in assay [1]) were 1.7 nM and 0.62 nM, respectively. For the same compound, the IC50 turned out to be 67 nM in the assay with HCT-116 cell line (first HCT-116 column (c4)) and 130 nM in the assay on HCT-116 cell line (second HCT-116 column (c5)).

One may read the IC50 as the concentration that gives 50% inhibition.
